Experimental data published in patent publication US8603965B2, “Pharmaceutical composition for the prophylaxis and treatment of HIV infection and its use” (priority 2006, dated 2013).
“And” between values parts separate entries of the source, which are not always exact repeats. Equal entries are not always repeated. “Also recorded” adds a separate entry of the source. Where two headings read alike, the source gives them in different places. Ends that are not written are not given here.

Columns and labels:
[1] = system: HIV; conditions: HIV fusion assay; cited from earlier work
[2] = system: HIV; assay: Multidose subcutaneous injection once daily for 14 days in HIV positive patients (Example 4); type: in vivo, human; conditions: 1-30 mg once daily
Procedure: Twenty-one subjects were divided into 5 groups, received pharmaceutical composition containing 1 mg, 5 mg, 10 mg, 20 mg, 30 mg FS-01 once daily, for 14 days. Determined the viral load before injection and after injection.

[3] = Pharmacokinetic study of single subcutaneous injection of pharmaceutical composition containing FS-01 in healthy volunteers; type: in vivo, human
Procedure: 3-period crossover Latin square design was employed, 12 subjects were randomly divided into three groups, four subjects per group, and were sequentially abdomenal and subcutaneously injected by pharmaceutical composition containing 10, 20, 30 mg of FS-01, doses are listed in Table 2. Blood samples were collected at 30-5 min pre-dose, 5, 15, 30 min, 1, 2, 4, 6, 8, 12, 24, 48 and 72 h after injection. The concentration of FS-01 in blood sample was quantitatively analyzed by LC\MS\MS.

[4] = Half-life of FS-01 in HIV patient; conditions: human, in vivo, subcutaneous, 20 mg
Procedure: (§1) Nineteen HIV patients were divided into two groups, were subcutaneously injected with pharmaceutical composition containing 10 mg and 20 mg of FS-01 once daily, for 28 days. The data was analyzed together with that in Example 4.
It has been shown in the result that the pharmaceutical composition of the present invention has good safety profile. […] Plasma viral load in HIV infected patient with baseline less than <10,000 c/ml decreased by 1.2 log in 20 mg group 14 days after administration (see FIG. 3). And it is recommended for infected patient with baseline viral load more than 10,000 c/ml to receive combination treatment with other antiviral agents, such as antiretroviral inhibitors or protease inhibitors.

[5] = system: HIV; assay: Multidose subcutaneous injection once daily for 28 days in HIV positive patients (Example 5); type: in vivo, human; conditions: 10 mg and 20 mg once daily
Procedure: as §1

[6] = Pharmacokinetic study of single subcutaneous or intravenous injection of FS-01 in rhesus monkey; type: in vivo; conditions: 1.2 mg/kg
Procedure: Detailed experiment method as follows: three rhesus monkeys, crossover design, with a washout period of more than two weeks. Rhesus monkey was administrated 1.2 mg/kg of FS-01 by subcutaneously or intravenously injection, 1 ml of blood sample were collected at different point of time (0, 1, 5, 15, 30 min, 1, 2, 4, 6, 8, 12, 24 and 48 h). Drug concentration at different time point in blood sample was quantitatively analyzed by LC\MS\MS, utilizing iodine labeled FS-01 as internal standard, C18 column, aqueous solution containing 0.1% TFA and acetonitrile as mobile phase. Pharmacokinetics analysis was carried out according to fitting model based on the concentration of FS-01, determined the half-life (T1/2) in plasma, bioavailability and other pharmacokinetics parameters (FIG. 1).

[7] = healthy volunteers, 10, 20, 30 mg
[8] = plasma, 24 h, read-out: C24 (plasma concentration at 24 h)

## X-SWETWEREIENYTKQIYKILEESQEQQDRNEKDLLE-Z (not fully specified (N-terminus, C-terminus); printed as X-SWETWEREIENYTKQIYKILEESQEQQDRNEKDLLE-Z)
[1]
  EC50 relative to T-20: 20 times lower than T-20

## Ac-SWETWEREIENYTRQIYRILEESQEQQDRNERDLLE-NH2 [FS-01]
[2]
  side effects: No signs of substantial side effects
[3]; [7]
  clearance rate as dose increases: did not slow down; also recorded: did not decrease
  pharmacokinetic process (linearity): linear pattern; also recorded: linear relation
[3]; healthy volunteers, 72 hours after dosing
  plasma drug concentration after 72 hours: approaching baseline; also recorded: approached to baseline
[3]; human, plasma, sc, 10 mg, healthy volunteers, 10 mg (low dose), single subcutaneous injection
  Cmax: 104 ng/mL and 22 nM
[3]; human, plasma, sc, 20 mg, healthy volunteers, 20 mg (middle dose), single subcutaneous injection
  Cmax: 213 ng/mL and 45.1 nM
[3]; human, plasma, sc, 30 mg, healthy volunteers, 30 mg (high dose), single subcutaneous injection
  Cmax: 250 ng/mL and 52.9 nM
[3]; human, plasma, sc, healthy volunteers, single subcutaneous injection
  half-life: 20 ± 18.6 h
[4]
  half-life: 39 h
[5]
  side effects / safety profile: No signs of substantial side effects
[6]
  Tmax: 0.25 h-2 h
[6]; plasma
  Cmax: 508 ng/mL and 108 nM
[6]; [8]
  level at 24 h: > 9.8 ng/mL
  level at time molar at 24 h: > 2.07 nM
[6]; plasma, read-out: Tmax
  Tmax: 0.25 to 2 h
[6]; plasma, subcutaneous or intravenous injection
  half-life: 8.13 ± 3.1 h
[6]; plasma, subcutaneous or intravenous injection, read-out: bioavailability (BA)
  bioavailability: 50%
